Measurements from US5053425A, “Novel anti-fungal compounds” (Merck & Co., Inc., priority 1990, dated 1991).
Converted amounts (≈) assume the structure as drawn.

Key:
Assay type in all cases: cell-based
A. flavus MF383 = assay: MIC, inhibitor dilution assay in microtiter format, A. flavus MF383; conditions: Aspergillus flavus; A. flavus MF383, 42 hours, 28° C.; read-out: Minimum Inhibitory Concentration
Protocol: (§1) The compounds are particularly active towards filamentous fungi and yeasts including Candida albicans and Crypt neoformans. The sensitivity of filamentous fungi and yeast was determined using inhibitor dilution assays in microtiter format. The compounds were dissolved in DMSO at 2 mg/ml and serially diluted in 0.1M phosphate buffer, pH 7.0 in the microtiter dish from 100 to 0.006 μg/ml. A standardized spore suspension for testing the filamentous fungi was prepared by inoculating Antibiotic Medium #3 containing 1.5% agar with spores such that 1.5×10^3 colony forming units were added per well. The microtiter wells were filled with 50 μl of buffer containing compound and 50 μl of inoculated medium. The sensitivity of yeasts was determined by inoculating yeast nitrogen base containing 1% dextrose (YNB/G) with aliquots of an overnight yeast culture grown in yeast morphology (YM) media at 35° C. and diluting in YNB/G to yield a final concentration of 1.5-7.5×10^3 colony forming units/well. One hundred fifty μl of inoculated media was added per well. To test the sensitivity of yeast, compound was solubilized in 10 percent aqueous DMSO at 2.56 mg/ml. The compound was diluted serially in YNB/G from 128 to 0.06 μg/ml. The wells were filled with 150 μl of drug containing media. […]

T. Mentagrophytes MF4864 = assay: MIC, inhibitor dilution assay in microtiter format, T. Mentagrophytes MF4864; conditions: Trichophyton mentagrophytes; T. Mentagrophytes MF4864, 42 hours, 28° C.; read-out: Minimum Inhibitory Concentration
Protocol: as §1

A. fumigatus MF4839 = assay: MIC, inhibitor dilution assay in microtiter format, A. fumigatus MF4839; conditions: Aspergillus fumigatus; A. fumigatus MF4839, 42 hours, 28° C.; read-out: Minimum Inhibitory Concentration
Protocol: as §1

Crypt. neoformans MY1051 = assay: MIC and MFC, inhibitor dilution assay in microtiter format, Crypt. neoformans MY1051; conditions: Cryptococcus neoformans; for MFC: Crypt neoformans MY1051, no growth or no more than three colonies, read-out: Minimum Fungicidal Concentration; for MIC: Crypt. neoformans MY1051, 24 hours, 28° C., read-out: Minimum Inhibitory Concentration
Protocol: (§2) The compounds are particularly active towards filamentous fungi and yeasts including Candida albicans and Crypt neoformans. The sensitivity of filamentous fungi and yeast was determined using inhibitor dilution assays in microtiter format. The compounds were dissolved in DMSO at 2 mg/ml and serially diluted in 0.1M phosphate buffer, pH 7.0 in the microtiter dish from 100 to 0.006 μg/ml. A standardized spore suspension for testing the filamentous fungi was prepared by inoculating Antibiotic Medium #3 containing 1.5% agar with spores such that 1.5×10^3 colony forming units were added per well. The microtiter wells were filled with 50 μl of buffer containing compound and 50 μl of inoculated medium. The sensitivity of yeasts was determined by inoculating yeast nitrogen base containing 1% dextrose (YNB/G) with aliquots of an overnight yeast culture grown in yeast morphology (YM) media at 35° C. and diluting in YNB/G to yield a final concentration of 1.5-7.5×10^3 colony forming units/well. One hundred fifty μl of inoculated media was added per well. To test the sensitivity of yeast, compound was solubilized in 10 percent aqueous DMSO at 2.56 mg/ml. The compound was diluted serially in YNB/G from 128 to 0.06 μg/ml. The wells were filled with 150 μl of drug containing media. The minimum inhibitory concentration (MIC) is defined as the lowest concentration to prevent visible growth after an incubation for 42 hours, 28° C. for the filamentous fungi and 24 hours, 28° C. for the yeasts. […] Representative of the antifungal activity are the minimum inhibitory concentration and minimum fungicidal concentration data shown below: […]

C. parapsilosis MY1010 = assay: MIC and MFC, inhibitor dilution assay in microtiter format, C. parapsilosis MY1010; conditions: Lodderomyces parapsilosis; for MIC: C. parapsilosis MY1010, 24 hours, 28° C., read-out: Minimum Inhibitory Concentration; for MFC: C. parapsilosis MY1010, no growth or no more than three colonies, read-out: Minimum Fungicidal Concentration
Protocol: as §2

C. albicans MY1055 = assay: MIC and MFC, inhibitor dilution assay in microtiter format, C. albicans MY1055; conditions: Candida albicans; for MIC: C. albicans MY1055, 24 hours, 28° C., read-out: Minimum Inhibitory Concentration; for MFC: C. albicans MY1055, no growth or no more than three colonies, read-out: Minimum Fungicidal Concentration
Protocol: as §2

C. tropicalis MY1012 = assay: MIC and MFC, inhibitor dilution assay in microtiter format, C. tropicalis MY1012; conditions: Candida tropicalis; for MIC: C. tropicalis MY1012, 24 hours, 28° C., read-out: Minimum Inhibitory Concentration; for MFC: C. tropicalis MY1012, no growth or no more than three colonies, read-out: Minimum Fungicidal Concentration
Protocol: as §2

Fus. oxysporum MF4014 = assay: MIC, inhibitor dilution assay in microtiter format, Fus. oxysporum MF4014; conditions: Fusarium oxysporum; Fus. oxysporum MF4014, 42 hours, 28° C.; read-out: Minimum Inhibitory Concentration
Protocol: as §1

Coch. miyabeanus MF4626 = assay: MIC, inhibitor dilution assay in microtiter format, Coch. miyabeanus MF4626; conditions: Bipolaris oryzae, MF4626, 42 h, read-out: Minimum Inhibitory Concentration
Protocol: as §1

A. niger MF442 = assay: MIC, inhibitor dilution assay in microtiter format, A. niger MF442; conditions: Aspergillus niger; A. niger MF442, 42 hours, 28° C.; read-out: Minimum Inhibitory Concentration
Protocol: as §1

Pen. italicum MF2819 = assay: MIC, inhibitor dilution assay in microtiter format, Pen. italicum MF2819; conditions: Penicillium italicum; Pen. italicum MF2819, 42 hours, 28° C.; read-out: Minimum Inhibitory Concentration
Protocol: as §1

Structure (SMILES)	MIC (A. flavus MF383) [mg/L]	MIC (T. Mentagrophytes MF4864) [mg/L]	MIC (A. fumigatus MF4839) [mg/L]	MFC (Crypt. neoformans MY1051) [mg/L]	MIC (Crypt. neoformans MY1051) [mg/L]	MIC (C. parapsilosis MY1010) [mg/L]	MFC (C. parapsilosis MY1010) [mg/L]	MIC (C. albicans MY1055) [mg/L]	MFC (C. albicans MY1055) [mg/L]	MIC (C. tropicalis MY1012) [mg/L]	MFC (C. tropicalis MY1012) [mg/L]	MIC (Fus. oxysporum MF4014) [mg/L]	MIC (Coch. miyabeanus MF4626) [mg/L]	MIC (A. niger MF442) [mg/L]	MIC (Pen. italicum MF2819) [mg/L]
C=C(CCC12OC(C(=O)OC)C(O)(C(=O)OC)C(C(=O)OC)(O1)C(OC(=O)C=CC(C)CC(C)CC)C2O)C(OC(C)=O)C(C)Cc1ccccc1 (centres unmarked) [Compound B]	> 128	> 128	> 128	> 128	> 128	> 128	> 128	> 128	> 128	> 128	> 128				
C=C(CCC12OC(C(=O)O)C(O)(C(=O)O)C(C(=O)O)(O1)C(OC(=O)C=CC(C)CC(C)CC)C2O)C(OC(C)=O)C(C)Cc1ccccc1 (centres unmarked) [Compound A]	6.2 (≈ 8.98 µM)	4 (≈ 5.79 µM)	6.2 (≈ 8.98 µM)	0.5 (≈ 0.724 µM)	1 (≈ 1.45 µM)	8 (≈ 11.6 µM)	2 (≈ 2.9 µM)	8 (≈ 11.6 µM)	4 (≈ 5.79 µM)	4 (≈ 5.79 µM)	2 (≈ 2.9 µM)	> 100	1.6 (≈ 2.32 µM)	25 (≈ 36.2 µM)	6.2 (≈ 8.98 µM)
